Eight molecules from US12391671B2, “Allosteric EGFR inhibitors and methods of use thereof” (Dana-Farber Cancer Institute, Inc., priority 2019, dated 2025) can be followed below.

Structures can show the parent of a compound that is named as a salt. Where two headings read alike, the source gives them in different places.

The target in assay [1] is EGFR L858R/T790M (Homo sapiens (Human), UniProt P00533, L858R/T790M). Kind of assay: HTRF-based EGFR biochemical assay (L858R/T790M). As to conditions: 100 μM ATP, enzyme 0.02 nM. The method, boiled down:
(§1)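 Mutant EGFR (L858R 0.1 nM, L858R/T790M 0.02 nM) preincubated 30 min with compounds at room temperature in HEPES pH 7.0 buffer with Mg2+/Mn2+, then reacted 20 min with 1 μM biotinylated tyrosine kinase peptide and 100 μM ATP. Phosphorylation read by HTRF (Eu-cryptate anti-phosphotyrosine/streptavidin-XL665, 665/620 nm) after EDTA quench.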
A general note: Time-resolved FRET reads energy transfer from a long-lived donor to a nearby acceptor.

Assay [2] concerns EGFR mutant L858R/T790M Ba/F3 cells. Kind of assay: Ba/F3 cell proliferation model (Cell Titer Glo), EGFR L858R/T790M. The format is cell-based, murine. Conditions: 72 hours. The method, boiled down: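 Retrovirally transduced Ba/F3 cells exposed 72 h to compound alone or with 1 μg/mL cetuximab, triplicate points, repeated at least three times. Viability by Cell Titer Glo luminescence (ATP); curves fitted by non-linear sigmoidal dose-response regression.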
In general terms: In ATP-based viability assays light output follows the ATP content of the culture.

Assay [3] addresses EGFR L858R (Homo sapiens (Human), UniProt P00533, L858R). Kind of assay: HTRF-based EGFR biochemical assay (L858R). As to conditions: 100 μM ATP, enzyme 0.1 nM. The method, boiled down:
as §1

[4] abbreviates: Mus musculus, BaF3, single agent, read-out: Cell IC50 BaF3 EGFR L858R/T790M.
[5] abbreviates: in combination with 1 μg/mL cetuximab, read-out: Cell IC50 BaF3 EGFR L858R/T790M (+cetux.).

Sequence of EGFR L858R (P00533 25-1210 L858R): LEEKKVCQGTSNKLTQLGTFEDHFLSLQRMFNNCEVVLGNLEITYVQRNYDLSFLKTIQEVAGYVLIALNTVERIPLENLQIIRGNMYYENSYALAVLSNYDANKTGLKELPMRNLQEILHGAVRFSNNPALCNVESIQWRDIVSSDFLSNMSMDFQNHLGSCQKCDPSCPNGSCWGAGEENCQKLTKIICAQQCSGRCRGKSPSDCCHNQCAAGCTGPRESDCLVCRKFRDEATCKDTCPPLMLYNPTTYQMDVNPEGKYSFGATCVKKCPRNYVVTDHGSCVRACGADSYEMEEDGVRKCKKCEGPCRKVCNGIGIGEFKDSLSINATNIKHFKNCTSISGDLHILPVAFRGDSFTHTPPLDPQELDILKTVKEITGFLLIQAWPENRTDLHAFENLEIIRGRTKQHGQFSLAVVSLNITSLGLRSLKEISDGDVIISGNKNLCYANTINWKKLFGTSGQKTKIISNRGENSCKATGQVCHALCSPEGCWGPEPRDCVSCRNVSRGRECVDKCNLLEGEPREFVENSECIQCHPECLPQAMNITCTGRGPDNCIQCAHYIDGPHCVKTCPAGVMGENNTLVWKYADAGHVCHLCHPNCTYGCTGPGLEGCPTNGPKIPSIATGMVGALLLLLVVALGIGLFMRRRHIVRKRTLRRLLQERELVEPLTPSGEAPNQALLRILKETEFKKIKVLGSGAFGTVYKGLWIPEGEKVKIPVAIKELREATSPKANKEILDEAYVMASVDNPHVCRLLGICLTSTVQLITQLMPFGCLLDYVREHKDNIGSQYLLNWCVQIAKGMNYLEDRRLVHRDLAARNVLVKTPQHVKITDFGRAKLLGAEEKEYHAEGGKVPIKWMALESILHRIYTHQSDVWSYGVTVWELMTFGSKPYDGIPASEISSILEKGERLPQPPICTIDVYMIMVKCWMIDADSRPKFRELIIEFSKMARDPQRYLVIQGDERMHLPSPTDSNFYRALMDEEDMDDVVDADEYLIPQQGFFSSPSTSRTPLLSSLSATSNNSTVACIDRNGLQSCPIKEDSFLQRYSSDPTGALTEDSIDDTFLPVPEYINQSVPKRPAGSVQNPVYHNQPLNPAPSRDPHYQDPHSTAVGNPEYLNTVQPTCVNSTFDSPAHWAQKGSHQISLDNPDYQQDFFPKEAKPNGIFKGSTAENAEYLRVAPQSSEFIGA
Sequence of EGFR L858R/T790M (P00533 25-1210 T790M/L858R): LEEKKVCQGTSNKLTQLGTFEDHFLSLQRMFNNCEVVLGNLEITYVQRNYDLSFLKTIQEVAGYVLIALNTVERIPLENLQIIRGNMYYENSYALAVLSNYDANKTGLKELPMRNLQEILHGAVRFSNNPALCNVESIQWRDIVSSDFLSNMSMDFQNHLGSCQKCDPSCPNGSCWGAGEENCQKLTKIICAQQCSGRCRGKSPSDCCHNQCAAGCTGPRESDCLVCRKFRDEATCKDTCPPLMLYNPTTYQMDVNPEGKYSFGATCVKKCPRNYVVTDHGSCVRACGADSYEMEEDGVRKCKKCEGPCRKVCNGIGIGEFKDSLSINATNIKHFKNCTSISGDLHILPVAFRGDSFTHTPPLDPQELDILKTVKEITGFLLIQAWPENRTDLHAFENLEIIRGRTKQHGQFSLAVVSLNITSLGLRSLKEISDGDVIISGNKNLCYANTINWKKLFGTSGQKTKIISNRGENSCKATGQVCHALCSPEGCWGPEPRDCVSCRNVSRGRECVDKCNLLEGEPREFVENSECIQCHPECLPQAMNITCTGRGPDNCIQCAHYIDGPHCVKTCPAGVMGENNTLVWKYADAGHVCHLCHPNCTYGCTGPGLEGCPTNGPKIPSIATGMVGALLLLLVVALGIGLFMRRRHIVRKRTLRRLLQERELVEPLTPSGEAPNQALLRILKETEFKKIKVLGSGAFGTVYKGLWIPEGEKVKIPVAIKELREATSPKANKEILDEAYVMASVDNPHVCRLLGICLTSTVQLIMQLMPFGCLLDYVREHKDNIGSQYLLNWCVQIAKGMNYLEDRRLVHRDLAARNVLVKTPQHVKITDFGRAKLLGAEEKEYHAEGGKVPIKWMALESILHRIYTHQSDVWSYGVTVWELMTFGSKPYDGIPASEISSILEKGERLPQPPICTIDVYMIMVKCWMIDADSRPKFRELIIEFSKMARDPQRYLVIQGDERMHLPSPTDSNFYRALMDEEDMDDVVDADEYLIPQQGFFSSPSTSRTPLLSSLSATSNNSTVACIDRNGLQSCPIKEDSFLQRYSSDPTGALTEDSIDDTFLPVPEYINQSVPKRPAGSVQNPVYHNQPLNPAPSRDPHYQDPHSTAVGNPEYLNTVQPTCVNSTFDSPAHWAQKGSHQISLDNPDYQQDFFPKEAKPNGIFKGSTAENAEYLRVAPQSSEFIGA

Regarding `CN(C)CCN(C)c1ccc(-c2ccc3c(c2)C(=O)N(C(c2nc4ccccc4[nH]2)c2cc(F)ccc2O)C3)cc1` (centres unmarked) [Compound 041, 2-[1H-benzimidazol-2-yl-(5-fluoro-2-hydroxy-phenyl)-methyl]-6-[4-[2-(dimethylamino)-ethyl-methyl-amino]phenyl]-isoindolin-1-one; hydrochloride], the IC50 in assay [1] is 2 nM; in assay [2] (setting [4]) it was 950 nM; in assay [2] (setting [5]) it was 20 nM; in assay [3], 5 nM.

With `CN1CCC(c2ccc(-c3ccc4c(c3)C(=O)N(C(c3nc5ccccc5[nH]3)c3cccc(F)c3O)C4)cc2)CC1` (centres unmarked) [Compound 042, 2-[1H-benzimidazol-2-yl-(3-fluoro-2-hydroxy-phenyl)-methyl]-6-[4-(1-methyl-4-piperidyl)phenyl]isoindolin-1-one; dihydrochloride], the IC50 in assay [1] came to 13 nM; in assay [2] (setting [4]), 4000 nM; in assay [2] (setting [5]), 240 nM; in assay [3], 31 nM.

Take `CN1CCC(c2ccc(-c3ccc4c(c3)C(=O)N(C(c3nc5ccccc5[nH]3)c3cc(Cl)ccc3O)C4)cc2)CC1` (centres unmarked) [Compound 044, 2-[1H-benzimidazol-2-yl-(5-chloro-2-hydroxy-phenyl)-methyl]-6-[4-(1-methyl-4-piperidyl)phenyl]isoindolin-1-one; hydrochloride]: the IC50 turned out to be 2 nM in assay [1], 1500 nM in assay [2] (setting [4]), 50 nM in assay [2] (setting [5]) and 6 nM in assay [3].

As for `CN1CCC(c2ccc(-c3ccc4c(c3)C(=O)N(C(c3ccn[nH]3)c3cc(F)ccc3O)C4)cc2)CC1` (centres unmarked) [Compound 045, 2-[(5-fluoro-2-hydroxy-phenyl)-(1H-pyrazol-3-yl)methyl]-6-[4-(1-methyl-4-piperidyl)phenyl]-isoindolin-1-one], the IC50 in assay [1] stood at 18 nM; in assay [2] (setting [4]), 3740 nM; in assay [2] (setting [5]) it was 1170 nM; in assay [3] it was 32 nM.

`CN1CCC(c2ccc(-c3ccc4c(c3)C(=O)N(C(c3nc5cc(F)ccc5[nH]3)c3cc(F)ccc3O)C4)cc2)CC1` (centres unmarked) [Compound 046, 2-[(5-fluoro-1H-benzimidazol-2-yl)-(5-fluoro-2-hydroxy-phenyl)-methyl]-6-[4-(1-methyl-4-piperidyl)phenyl]isoindolin-1-one; formic acid]: the IC50 in assay [1] was found to be 0.7 nM; in assay [2] (setting [4]) it was 860 nM; in assay [2] (setting [5]) it was 20 nM; in assay [3] it was 4 nM.

Consider `CN1CCC(c2ccc(-c3ccc4c(c3)C(=O)N(C(c3nc5c(Cl)cccc5[nH]3)c3cc(F)ccc3O)C4)cc2)CC1` (centres unmarked) [Compound 047, 2-[(4-chloro-1H-benzimidazol-2-yl)-(5-fluoro-2-hydroxy-phenyl)-methyl]-6-[4-(1-methyl-4-piperidyl)phenyl]isoindolin-1-one; formic acid], for which the IC50 was 2 nM in assay [1], 1840 nM in assay [2] (setting [4]), 80 nM in assay [2] (setting [5]) and 14 nM in assay [3].

Turning to `COc1ccc2[nH]c(C(c3cc(F)ccc3O)N3Cc4ccc(-c5ccc(C6CCN(C)CC6)cc5)cc4C3=O)nc2c1` (centres unmarked) [Compound 048, 2-[(5-fluoro-2-hydroxy-phenyl)-(5-methoxy-1H-benzimidazol-2-yl)methyl]-6-[4-(1-methyl-4-piperidyl)phenyl]isoindolin-1-one; formic acid], the IC50 in assay [1] worked out at 4 nM; in assay [2] (setting [4]), 4760 nM; in assay [2] (setting [5]), 760 nM; in assay [3], 35 nM.

With `CN1CC(c2ccc(-c3ccc4c(c3)C(=O)N(C(c3nc5ccccc5[nH]3)c3cc(F)ccc3O)C4)cc2)C1` (centres unmarked) [Compound 049, 2-[1H-benzimidazol-2-yl-(5-fluoro-2-hydroxy-phenyl)methyl]-6-[4-(1-methylazetidin-3-yl)phenyl]isoindolin-1-one], the IC50 in assay [1] came to 2 nM; in assay [2] (setting [4]) it was 2540 nM; in assay [2] (setting [5]), 20 nM; in assay [3], 6 nM.
